Measured values published in patent publication US20260132129A1 (Genesis Therapeutics, Inc., priority 2022, published 2026).

Molecular target: T1, PI3Kα H1047R (T47D cells) (Homo sapiens, UniProt P42336, H1047R)
T1 construct: endogenous in cells; host or cells: T47D cells
Experiment: PI3Kα cellular assay: pAKT HTRF in T47D cells after EGF stimulation
Format: cell-based
Settings: for IC50: T47D cells (PI3Kα H1047R), pAKT S473 HTRF, EGF stimulation
In short: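 T47D cells (PIK3CA H1047R) serum-starved 16 h, then treated 1 h at 37 °C with compound (10,000 nM top, 3-fold steps to 0.5 nM). After 10 min stimulation with 20 ng/mL EGF, cells were lysed and pAKT measured by HTRF.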

T1 sequence (P42336 whole entry H1047R): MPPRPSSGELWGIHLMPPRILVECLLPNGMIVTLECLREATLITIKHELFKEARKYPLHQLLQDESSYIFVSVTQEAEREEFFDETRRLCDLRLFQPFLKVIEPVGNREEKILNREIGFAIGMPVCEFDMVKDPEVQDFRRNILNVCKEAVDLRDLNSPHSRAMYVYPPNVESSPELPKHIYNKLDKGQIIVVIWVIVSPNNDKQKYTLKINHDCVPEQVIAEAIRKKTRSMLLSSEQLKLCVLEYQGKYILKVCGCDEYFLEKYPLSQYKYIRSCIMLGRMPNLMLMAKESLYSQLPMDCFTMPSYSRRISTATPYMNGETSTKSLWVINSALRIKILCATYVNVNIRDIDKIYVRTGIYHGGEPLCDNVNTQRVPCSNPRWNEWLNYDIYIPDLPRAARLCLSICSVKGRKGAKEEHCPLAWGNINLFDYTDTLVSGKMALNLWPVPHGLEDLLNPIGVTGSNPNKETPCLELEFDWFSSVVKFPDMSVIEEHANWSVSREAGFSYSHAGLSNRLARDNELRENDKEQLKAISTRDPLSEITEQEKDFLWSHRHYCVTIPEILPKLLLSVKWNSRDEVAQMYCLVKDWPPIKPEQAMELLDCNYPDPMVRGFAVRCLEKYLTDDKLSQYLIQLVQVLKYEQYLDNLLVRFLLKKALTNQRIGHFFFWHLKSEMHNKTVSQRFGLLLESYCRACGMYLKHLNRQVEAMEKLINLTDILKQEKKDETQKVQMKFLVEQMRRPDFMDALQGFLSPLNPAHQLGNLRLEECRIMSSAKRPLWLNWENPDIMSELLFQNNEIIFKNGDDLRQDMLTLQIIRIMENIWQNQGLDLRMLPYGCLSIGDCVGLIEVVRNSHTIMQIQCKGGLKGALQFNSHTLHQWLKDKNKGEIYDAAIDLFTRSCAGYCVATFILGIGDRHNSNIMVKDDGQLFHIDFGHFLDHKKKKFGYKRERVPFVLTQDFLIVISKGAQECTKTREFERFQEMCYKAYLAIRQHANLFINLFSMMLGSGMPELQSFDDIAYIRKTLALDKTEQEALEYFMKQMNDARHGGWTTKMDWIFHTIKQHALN
T1 sequence (P27986 whole entry partner): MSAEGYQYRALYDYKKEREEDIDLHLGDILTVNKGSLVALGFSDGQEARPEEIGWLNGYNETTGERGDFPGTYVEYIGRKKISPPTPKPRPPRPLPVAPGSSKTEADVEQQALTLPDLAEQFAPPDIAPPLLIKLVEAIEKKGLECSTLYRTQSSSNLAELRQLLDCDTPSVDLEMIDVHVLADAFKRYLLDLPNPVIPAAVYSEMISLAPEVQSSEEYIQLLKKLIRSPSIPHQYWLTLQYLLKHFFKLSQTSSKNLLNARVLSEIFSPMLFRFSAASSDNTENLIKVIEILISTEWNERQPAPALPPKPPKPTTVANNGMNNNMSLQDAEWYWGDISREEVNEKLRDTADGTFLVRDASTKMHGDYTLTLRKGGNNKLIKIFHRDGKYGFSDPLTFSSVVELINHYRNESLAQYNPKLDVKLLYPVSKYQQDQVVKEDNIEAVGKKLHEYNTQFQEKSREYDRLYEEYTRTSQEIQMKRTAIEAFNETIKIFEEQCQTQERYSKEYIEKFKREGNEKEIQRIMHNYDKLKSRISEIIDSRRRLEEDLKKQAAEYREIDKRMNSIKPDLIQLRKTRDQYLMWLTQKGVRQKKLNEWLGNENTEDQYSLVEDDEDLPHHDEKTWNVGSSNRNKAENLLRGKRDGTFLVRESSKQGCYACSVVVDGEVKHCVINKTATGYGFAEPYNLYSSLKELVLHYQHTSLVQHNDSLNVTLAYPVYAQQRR

Row | T47D pAKT S473 HTRF IC50 (H1047R): T47D (H1047R) selectivity over SKBR3 (WT) | IC50 [nM] | Compound
1 | C (C denotes ≤5-fold) | – | Cc1cc([C@@H](C)Nc2ccccc2S(N)(=O)=O)c2nc(C3CCN(CC(C)C)CC3)c(C)c(=O)n2c1 [Compound 1287]
2 | A (A denotes >20-fold) | 100 to 500 | CC(=O)N1CCC(c2ccc(-c3nc4c([C@@H](C)Nc5ccccc5C(=O)O)cc(C)cn4c(=O)c3C)cc2)CC1 [Compound 1289]
3 | C (C denotes ≤5-fold) | > 2000 | CC(=O)N1CCC(c2ccc(-c3nc4c([C@H](C)Nc5ccccc5C(=O)O)cc(C)cn4c(=O)c3C)cc2)CC1 [Compound 1290]
4 | A (A denotes >20-fold) | 100 to 500 | COc1cc(-c2nc3c([C@@H](C)Nc4ccccc4C(=O)O)cc(C)cn3c(=O)c2C)cn2ncc(C#N)c12 [Compound 1291]
5 | C (C denotes ≤5-fold) | > 2000 | COc1cc(-c2nc3c([C@H](C)Nc4ccccc4C(=O)O)cc(C)cn3c(=O)c2C)cn2ncc(C#N)c12 [Compound 1292]
6 | A (A denotes >20-fold) | 100 to 500 | Cc1cc(C(C)Nc2ccccc2C(=O)O)c2nc(C3CCCN(CC(F)F)C3)c(C)c(=O)n2c1 (stereo not shown) [Compound 1293]
7 | B (B denotes 20-fold≥value>5-fold) | 500 to 2000 | Cc1cc([C@@H](C)Nc2ccccc2S(N)(=O)=O)c2nc(-c3ccc(C4CCOCC4)nc3)c(C)c(=O)n2c1 [Compound 1294]
8 | A (A denotes >20-fold) | < 100 | Cc1cc([C@H](C)Nc2ccccc2S(N)(=O)=O)c2nc(-c3ccc(C4CCOCC4)nc3)c(C)c(=O)n2c1 [Compound 1295]
9 | A (A denotes >20-fold) | 100 to 500 | Cc1cc([C@@H](C)Nc2ccccc2C(=O)O)c2nc(-c3cnc(C4CCOCC4)nc3)c(C)c(=O)n2c1 [Compound 1296]
10 | C (C denotes ≤5-fold) | > 2000 | Cc1cc([C@H](C)Nc2ccccc2C(=O)O)c2nc(-c3cnc(C4CCOCC4)nc3)c(C)c(=O)n2c1 [Compound 1297]
11 | A (A denotes >20-fold) | < 100 | Cc1cc([C@@H](C)Nc2ccccc2C(=O)O)c2nc(-c3ccc4ccnn4c3)c(C)c(=O)n2c1 [Compound 1298]
12 | C (C denotes ≤5-fold) | > 2000 | Cc1cc([C@H](C)Nc2ccccc2C(=O)O)c2nc(-c3ccc4ccnn4c3)c(C)c(=O)n2c1 [Compound 1299]
13 | A (A denotes >20-fold) | < 100 | Cc1cc(C(C)Nc2ccccc2C(=O)O)c2nc(-c3ccc(C4CCN(C(=O)C5CC5)CC4)c(F)c3)c(C)c(=O)n2c1 (stereo not shown) [Compound 1300]
14 | C (C denotes ≤5-fold) | > 2000 | Cc1cc(C(C)Nc2ccccc2C(=O)O)c2nc(-c3ccc(C4CCNCC4)nc3)c(C)c(=O)n2c1 (stereo not shown) [Compound 1302]
15 | C (C denotes ≤5-fold) | > 2000 | Cc1cc(C(C)Nc2ccccc2C(=O)O)c2nc(-c3ccc(C4CNC4)nc3)c(C)c(=O)n2c1 (stereo not shown) [Compound 1303]
16 | B (B denotes 20-fold≥value>5-fold) | 500 to 2000 | Cc1cc(C(C)Nc2ccccc2S(N)(=O)=O)c2nc(-c3ccc(C4CCNCC4)nc3)c(C)c(=O)n2c1 (stereo not shown) [Compound 1304]
17 | C (C denotes ≤5-fold) | > 2000 | Cc1cc(C(C)Nc2ccccc2S(N)(=O)=O)c2nc(-c3ccc(C4CNC4)nc3)c(C)c(=O)n2c1.O=C(O)C(F)(F)F (stereo not shown) [Compound 1305]
18 | B (B denotes 20-fold≥value>5-fold) | – | Cc1cc([C@H](C)Nc2ccccc2C(=O)O)c2nc(-c3ccc(CNc4[nH]cc(C)c4C#N)c(C)c3)c(C)c(=O)n2c1 [Compound 1307]
19 | A (A denotes >20-fold) | 100 to 500 | Cc1cc(C(C)Nc2ccccc2C(=O)O)c2nc(C3CCN(CC(F)F)CC3)cc(=O)n2c1 (stereo not shown) [Compound 1308]
20 | B (B denotes 20-fold≥value>5-fold) | 500 to 2000 | Cc1cc([C@@H](C)Nc2ccccc2S(N)(=O)=O)c2nc([C@@H]3CCCN(CC(F)F)C3)c(C)c(=O)n2c1 [Compound 1309]
21 | C (C denotes ≤5-fold) | > 2000 | Cc1cc([C@@H](C)Nc2ccccc2S(N)(=O)=O)c2nc([C@H]3CCCN(CC(F)F)C3)c(C)c(=O)n2c1 [Compound 1310]
22 | C (C denotes ≤5-fold) | > 2000 | Cc1cc([C@H](C)Nc2ccccc2S(N)(=O)=O)c2nc([C@@H]3CCCN(CC(F)F)C3)c(C)c(=O)n2c1 [Compound 1311]
23 | A (A denotes >20-fold) | < 100 | Cc1cc([C@H](C)Nc2ccccc2S(N)(=O)=O)c2nc([C@H]3CCCN(CC(F)F)C3)c(C)c(=O)n2c1 [Compound 1312]

Row | T47D pAKT S473 HTRF IC50 (H1047R): T47D (H1047R) selectivity over SKBR3 (WT) | IC50 [nM] | Compound
24 | A (A denotes >20-fold) | 100 to 500 | Cc1cc(C(C)Nc2ccccc2C(=O)O)c2nc(-c3ccc(CC4CCN(C(=O)C5CC5)CC4)c(F)c3)c(C)c(=O)n2c1 (stereo not shown) [Compound 1313]
25 | A (A denotes >20-fold) | 100 to 500 | Cc1cc([C@@H](C)Nc2ccccc2C(=O)O)c2nc(-c3ccc(CC4CCN(C(=O)C5CC5)CC4)c(F)c3)c(C)c(=O)n2c1 [Compound 1314]
26 | C (C denotes ≤5-fold) | – | Cc1cc([C@H](C)Nc2ccccc2C(=O)O)c2nc(-c3ccc(CC4CCN(C(=O)C5CC5)CC4)c(F)c3)c(C)c(=O)n2c1 [Compound 1315]
27 | C (C denotes ≤5-fold) | – | Cc1cc([C@@H](C)Nc2ccccc2C(=O)O)c2nc(-c3ccc(C4CCC(C(=O)C5CC5)CC4)c(F)c3)c(C)c(=O)n2c1 (stereo partly shown) [Compound 1318]
28 | B (B denotes 20-fold≥value>5-fold) | – | Cc1cccc(-c2nc3c([C@H](C)Nc4ccccc4S(C)(=O)=O)cc(C)cn3c(=O)c2C)c1 [Compound 1320]
29 | B (B denotes 20-fold≥value>5-fold) | – | Cc1cccc(-c2nc3c(C(C)Nc4ccccc4C(=O)CS(=O)(=O)N(C)C)cc(C)cn3c(=O)c2C)c1 (stereo not shown) [Compound 1321]
30 | C (C denotes ≤5-fold) | – | Cc1cc(C(C)Nc2ccccc2C(=O)O)c2nc(C3=CCC(C4CN(C)C4)C=C3)c(C)c(=O)n2c1 (stereo not shown) [Compound 1322]
31 | A (A denotes >20-fold) | < 100 | Cc1cc([C@@H](C)Nc2ccccc2S(N)(=O)=O)c2nc(N3Cc4cccnc4C3)c(C)c(=O)n2c1 [Compound 1323]
32 | A (A denotes >20-fold) | – | Cc1cc([C@H](C)Nc2ccccc2S(N)(=O)=O)c2nc(N3Cc4cccnc4C3)c(C)c(=O)n2c1 [Compound 1324]
33 | C (C denotes ≤5-fold) | – | CCc1ccn2c(=O)c(C)c(-c3cccc(F)c3)nc2c1[C@@H](C)Nc1ccccc1C(=O)O [Compound 1325]
34 | A (A denotes >20-fold) | < 100 | CCc1ccn2c(=O)c(C)c(-c3cccc(F)c3)nc2c1[C@H](C)Nc1ccccc1C(=O)O [Compound 1326]
35 | B (B denotes 20-fold≥value>5-fold) | – | Cc1cc([C@H](C)Nc2ccccc2S(=O)(=O)O)c2nc(-c3cccc(C4CC4)c3)cc(=O)n2c1 [Compound 1327]
36 | A (A denotes >20-fold) | – | Cc1cc([C@@H](C)Nc2ccccc2C(=O)O)c2nc([C@H]3CCCC(CC(F)F)C3)c(C)c(=O)n2c1 (stereo partly shown) [Compound 1329]
37 | C (C denotes ≤5-fold) | – | Cc1cc([C@H](C)Nc2ccccc2C(=O)O)c2nc([C@H]3CCCC(CC(F)F)C3)c(C)c(=O)n2c1 (stereo partly shown) [Compound 1331]
38 | B (B denotes 20-fold≥value>5-fold) | – | CC(=O)N1CCC(Cc2ccc(-c3nc4c([C@H](C)Nc5ccccc5C(=O)O)cc(C)cn4c(=O)c3C)cc2F)CC1 [Compound 1334]
39 | C (C denotes ≤5-fold) | – | Cc1cc(C(C)Nc2ccccc2C(=O)O)c2nc(-c3cnc(C4CCN(C(=O)C5CC5)CC4)nc3)c(C)c(=O)n2c1 (stereo not shown) [Compound 1336]
40 | C (C denotes ≤5-fold) | – | Cc1cc(C(C)Oc2ccccc2C(=O)O)c2nc(-c3cccc(F)c3)c(C)c(=O)n2c1 (stereo not shown) [Compound 1337]
41 | C (C denotes ≤5-fold) | – | Cc1cc([C@@H](C)Nc2ccccc2C(=O)O)c2nc(-c3ccc(C4CCCC(C)C4)cc3)c(C)c(=O)n2c1 (stereo partly shown) [Compound 1338]
42 | B (B denotes 20-fold≥value>5-fold) | – | Cc1cc([C@H](C)Nc2ccccc2C(=O)O)c2nc(-c3ccc(C4CCC(C)CC4)cc3)cc(=O)n2c1 (stereo partly shown) [Compound 1341]
43 | C (C denotes ≤5-fold) | – | Cc1cc([C@@H](C)Nc2ccccc2C(=O)O)c2nc(-c3ccc(C4CN(C)C4)nc3)c(C)c(=O)n2c1 [Compound 1342]
44 | C (C denotes ≤5-fold) | – | Cc1cc([C@H](C)Nc2ccccc2C(=O)O)c2nc(-c3ccc(C4CN(C)C4)nc3)c(C)c(=O)n2c1 [Compound 1343]
45 | B (B denotes 20-fold≥value>5-fold) | – | Cc1cc([C@@H](C)Nc2ccccc2S(N)(=O)=O)c2nc(-c3ccc(C4CCNCC4)nc3)c(C)c(=O)n2c1 [Compound 1344]
